Source: patent publication US20230149409A1, “TREATMENT OF HUMAN PAPILLOMAVIRUS-ASSOCIATED CANCERS BY PD-L1 INHIBITORS” (priority 2021, published 2023)

Assays:
[1] = biological target: T1, PD-⅟PD-L1 (recombinant human PD-L1 protein and human PD-1 protein) (Homo sapiens, UniProt Q9NZQ7); assay: Homogeneous Time-Resolved Fluorescence (HTRF) PD-1/PD-L1 binding assay; settings: 3 nM PD1, 10 nM PD-L1, 25° C., PBS pH 7.4
T1 construct: Recombinant human PD-L1 protein (19-238) with a His-tag at the C-terminus; purchased AcroBiosystems PD1-H5229 (PD-L1); PD1-H5257 (PD-1)

[2] = test system: PD-L1 (U2OS/PD-L1 cells, Jurkat-PD-1-SHP cells); assay: Src Homology Region 2 Domain-containing Phosphatase (SHP) assay; assay type: cell-based; settings: Homo sapiens; U2OS/PD-L1 + Jurkat-PD-1-SHP cells, 2 hours
Outline: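 U2OS/PD-L1 cells and Jurkat-PD-1-SHP cells (5,000 each per well) were co-incubated with compound in RPMI1640/1% FBS for 2 h at 37° C, with final DMSO 0.05%. PathHunter chemiluminescence was read after 1 h at room temperature. IC50 was fitted from percent of DMSO-control activity against log concentration.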

[3] = test system: PD-L1 (PD-L1 aAPC/CHO-K1 cells, Jurkat-PD-1-NFAT effector cells); assay: Nuclear Factor of Activated T-cells (NFAT) assay; assay type: cell-based; settings: Cricetulus griseus; PD-L1 aAPC/CHO-K1 + Jurkat-PD-1-NFAT cells, 24 hours
Outline: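 PD-L1 aAPC/CHO-K1 cells (8000/well) were treated with compound (0.4% DMSO, 2 µM final), then co-cultured with Jurkat-PD-1-NFAT effector cells for 24 hours at 37° C. NFAT luciferase luminescence was normalized to DMSO as fold induction. Maximum induction is relative to the control compound's top FOI; EC50 is from curve fitting.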

[4] = biological target: T2, PD-L1 on CD14+ cells in human whole blood (Homo sapiens, UniProt Q9NZQ7); assay: PD-L1 whole blood internalization assay; assay type: cell-based; settings: 1 ng/mL interferon γ, CD14+ gated, 24 hour
T2 construct: Cells were gated on CD14+ (BD Biosciences) and PD-L1 expression determined by mean fluorescence intensity; host or cells: CD14+ cells in normal human whole blood, stimulated with human interferon gamma
Outline: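 Normal human whole blood exposed to compound concentration range plus 1 ng/mL IFN-γ for 18–20 h at 37 °C, then stained for PD-L1 and CD14, red cells lysed/fixed. PD-L1 MFI measured on CD14+ gated cells by flow cytometry; IC50 from percent inhibition versus log concentration fit.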

T2 sequence (Q9NZQ7 19-290): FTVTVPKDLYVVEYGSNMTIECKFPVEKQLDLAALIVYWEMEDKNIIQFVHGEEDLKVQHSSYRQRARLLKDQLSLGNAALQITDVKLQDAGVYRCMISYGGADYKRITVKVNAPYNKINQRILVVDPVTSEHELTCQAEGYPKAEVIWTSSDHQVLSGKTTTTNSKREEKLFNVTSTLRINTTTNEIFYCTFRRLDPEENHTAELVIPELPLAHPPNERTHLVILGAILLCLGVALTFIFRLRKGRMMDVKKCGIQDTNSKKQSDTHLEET
T1 sequence (Q9NZQ7 19-238): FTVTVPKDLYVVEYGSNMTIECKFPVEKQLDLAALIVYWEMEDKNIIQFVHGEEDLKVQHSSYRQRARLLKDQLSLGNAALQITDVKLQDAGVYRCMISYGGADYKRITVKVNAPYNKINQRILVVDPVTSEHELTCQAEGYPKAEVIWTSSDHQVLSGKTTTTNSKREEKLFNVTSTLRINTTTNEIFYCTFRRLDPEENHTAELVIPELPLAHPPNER

| SMILES | IC50 [1] | IC50 [2] | EC50 [3] | IC50 [4] |
| --- | --- | --- | --- | --- |
| Cn1c(C(=O)Nc2cccc(-c3cccc(NC(=O)c4nc5c(n4C)CCN(CCC46CCC(C(=O)O)(CC4)C6)C5)c3Cl)c2Cl)nc2c1CCN(CCC13CCC(C(=O)O)(CC1)C3)C2 [Compound 30, 4,4′-(((((2,2′-dichloro-[1,1′-bipheiryl]-3,3′-diyl)bis(azanediyl))bis(carbonyl))bis(1-methyl-1,4,6,7-tetrahydro-5H-imidazo[4,5-c]pyridine-2,5-diyl))bis(ethane-2,1-diyl))bis(bicyclo[2.2.1]heptane-1-carboxylic acid)] | < 10 nM | < 10 nM | < 100 nM | < 100 nM |
| Cc1c(Nc2nccc3cc(CN4CC[C@@H](O)C4)cnc23)cccc1-c1cccc(-c2nc3cc(CN4CC[C@@H](C(=O)O)C4)cc(C#N)c3o2)c1C [Compound 1, (R)-1-((7-cyano-2-(3′-(3-(((R)-3-hydroxypyrrolidin-1-yl)methyl)-1,7-naphthyridin-8-ylamino)-2,2′-dimethylbiphenyl-3-yl)benzo[d]oxazol-5-yl)methyl)pyrrolidine-3-carboxylic acid] | – | < 10 nM | < 100 nM | < 500 nM |
